Tested on: Human ciliated epithelium cells
Experiment: in-vitro ciliary activity / ciliary vibration test
Type: cell-based
Experimental: 1 test substance at a temperature of 37° C.

With `N=C(NCCCCCCNC(=N)NC(=N)Nc1ccc(Cl)cc1)NC(=N)Nc1ccc(Cl)cc1` [chlorohexidine solution, chlorohexidine] the “ciliary activity / ciliary vibration” value was “decrease”.

From US20060292244A1, “Use of pvp-iodine liposomes for treatment of acne” (priority 2003, published 2006)
